From patent US9540615B2, “Combined chemical and genetic approaches for generation of induced pluripotent stem cells” (The Scripps Research Institute, priority 2008, dated 2017) come the findings set out here.

The test has as its system OG2 MEFs transduced with OK (Oct4 and Klf4). In words: iPSC generation from OK-transduced OG2 MEFs (GFP+ colonies), including second synergist screen with BIX. Type of test: cell-based, mouse. The following applies: OK transduced OG2 MEFs; 3 independent experiments, standard deviation; OK alone 0.5±0.7. On the procedure:
Primary 129S2/SvPasCrlf (primary screen) or ROSA26^+/−/OG2^+/− (secondary screen) MEFs were plated onto Matrigel (1:50; BD Biosciences, Bedford, Mass.) coated dishes at a density of 3.5×10^4 cells per well of a 6-well plate. Twenty-four hours later, these cells were transduced overnight with defined retroviruses at 37° C., 5% CO2. Twelve to fourteen hours later, the media on the transduced cells was changed to mESC medium [Knockout DMEM, 10% ES-qualified FBS, 10% Knockout serum replacement, 1% Glutamax, 1% Non-essential amino acids, penicillin/streptomycin, 0.1 mM β-mercaptoethanol, 1% EmbryoMax ESC Qualified Nucleosides (Millipore, Temecula, Calif.), and 10^3 U/ml LIF (Millipore)] (all products were from Invitrogen, Carlsbad, Calif., except where mentioned). On that same day, individual small molecules from our known drug collection were added to the cells at a range between 0.5 and 2 μM. Compound treatment was continued for 10-14 days; the cells were fixed and stained on day 14-21 using a standard ALP detection kit (Millipore). For the second screen, 1 μM BIX was added to the mESC medium 1 day after transduction. Five days later, in addition to 1 μM BIX, individual small molecule from the known drug collection was added to each well, at a range between 0.5 and 2 μM. Mouse ESC media with defined small molecules was refreshed every three days until colonies with a similar morphology to mESCs were observed, which was usually between 14-21 days after transduction. […] Further characterization studies and repeats were carried either on primary 129S2/SvPasCrlf or ROSA26^+/−/OG2^+/− MEFs. When ROSA26^+/−/OG2^+/− MEFs were used, the iPSC colonies could also be identified through GFP expression, as a marker of Oct4 expression. Once iPSC colonies were identified, they were picked for expansion on MEF feeder cells in mESC medium.

With `COc1cc2nc(N3CCCN(C)CC3)nc(NC3CCN(Cc4ccccc4)CC3)c2cc1OC` [BIX01294], the “number of GFP+ colonies (reprogramming efficiency)” value is recorded as 2.5±0.7 colonies per 3.5×10^4 cells.
